The test in a line: protection from convulsions resulting from the administration of pentylenetetrazole (anti-anxiety test, rats, oral). Format: in vivo. Particulars: Rattus norvegicus, read-out: Median Effective Oral Dose ED50. How it is done:
The anti-anxiety properties of these compounds have been established in a test which indicates anxiolytic activity by a measure of protection from convulsions resulting from the administration of pentylenetetrazole. Graded dose levels of the compounds are administered orally, in a 2% starch vehicle, to groups of at least 5 rats. At the estimated time of peak effect, the rats are treated intravenously with pentylenetetrazole at a dose of 21 to 23 mg./kg. of body weight. This dose is estimated to cause clonic seizures in 99% of unprotected rats. The effective dose of the test compound for protection of 50% of the animals (ED50) is calculated by the method of D. H. Finney in Statistical Methods in Biological Assay, Second Edition, Hafner Publishing Co., New York, 1964, pp. 456-457. The results of this test on representative compounds of the present invention are given in the following table in comparison with meprobromate which is tested in the same manner. It has been reported [R. T. Hill and D. H. Tedeschi, "Animal Testing and Screening Procedures in Evaluating Psychotropic Drugs" in An Introduction to Psychopharmacology, Eds. R. R. Rech and K. E. Moore, Raven Press, New York, pp. 237-288 (1971)] that there is a high degree of correlation between antagonism of pentylenetetrazole seizures in rats and anti-anxiety effects in higher warm-blooded animals.

[1] abbreviates: oral, 2% starch vehicle, rats (at least 5 per group), pentylenetetrazole 21 to 23 mg./kg. intravenously at estimated time of peak effect, protection of 50% of animals.

The ED50 is the midpoint of the dose-response relation.

Like-named read-outs stand apart in the source and are kept apart here.

Regarding `O=C(CCN1CCCCC1)N1CC2CCCN2Cc2ccccc21` (single isomer, unassigned; (-)) [(-)-2,3,5,10,11,11a-Hexahydro-10-(3-piperidinopropionyl)-1H-pyrrolo[2,1-c][1,4]benzodiazepine], the median effective dose (ED50) under setting [1] was 16 mg/kg.

Turning to `O=C(CCN1CCCC1)N1CC2CCCN2Cc2ccccc21` (single isomer, unassigned; (-)) [(-)-2,3,5,10,11,11a-Hexahydro-10-[3-(1-pyrrolidinyl)-propionyl]-1H-pyrrolo[2,1-c] [1,4]benzodiazepine], under setting [1], the ED50 is 57 mg/kg.

On to `O=C(CCN1CCCC1)N1CC2CCCN2Cc2cc(Cl)ccc21` (single isomer, unassigned; (-)) [(-)-7-Chloro-2,3,5,10,11,11a-hexahydro-10-[3-(1-pyrrolidinyl)-propionyl]-1H-pyrrolo[2,1-c][1,4]benzodiazepine], for which the median effective dose (ED50) under setting [1] was 7 mg/kg.

With `CCCC(C)(COC(N)=O)COC(N)=O` [meprobromate, reference compound], the ED50 (po) worked out at 22 mg/kg.
